What all share (assay type): functional
A short description of assay [1]: Ratio of ED50 of single oral dose to ED50 of single subcutaneous dose against Staphylococcus aureus smith infection in mice.
For a further assay, the system named is Morganella morganii. Kind of assay: In vitro antimicrobial activity against Morganella morganii GC 2213 strain.
A further assay relates to Enterococcus faecium. Kind of assay: In vitro antimicrobial activity against Enterococcus faecium GC 1182 strain.
Assay [2] deals with Staphylococcus aureus. Kind of assay: In vitro antimicrobial activity against Staphylococcus aureus ATCC 29213 strain.
In assay [3] the test system is Staphylococcus aureus. Kind of assay: In vitro antimicrobial activity against Staphylococcus aureus GC 2220 strain.
In assay [4] the test system is Pseudomonas aeruginosa. Kind of assay: In vitro antimicrobial activity against Pseudomonas aeruginosa ATCC 27853 strain.
Assay [5] concerns Escherichia coli. Kind of assay: In vitro antimicrobial activity against Escherichia coli ATCC 25922 strain.
The test system of another assay is Enterobacter cloacae. Kind of assay: In vitro antimicrobial activity against Enterobacter cloacae GC 2209 strain.
The subject of the next assay is Citrobacter freundii. Kind of assay: In vitro antimicrobial activity against Citrobacter freundii GC 2211 strain.
The subject of assay [6] is Escherichia coli. Kind of assay: In vitro antimicrobial activity against Escherichia coli GC 2205 strain.
For assay [7], the system named is Stenotrophomonas maltophilia. Kind of assay: In vitro antimicrobial activity against Xanthomonas maltophilia GC 562 strain.
For assay [8], the system named is Pseudomonas aeruginosa. Kind of assay: In vitro antimicrobial activity against Pseudomonas aeruginosa GC 1544 strain.
In assay [9] the test system is Acinetobacter calcoaceticus. Kind of assay: In vitro antimicrobial activity against Acinetobacter calcoaceticus GC 756 strain.
Assay [10] deals with Mus musculus. Kind of assay: Tested for oral activity against Staphylococcus aureus smith infection in mice after single oral dose(SOD).
Another assay has as its system Enterococcus faecalis. Kind of assay: In vitro antimicrobial activity against Enterococcus faecalis GC 842 strain.
In assay [11] the test system is Escherichia coli. Kind of assay: In vitro antimicrobial activity against Escherichia coli GC 1792 strain.
The subject of assay [12] is Mus musculus. Kind of assay: Tested for oral activity against Staphylococcus aureus smith infection in mice after single subcutaneous dose(SSC).
The species entered for assay [13] is Mus musculus. Kind of assay: animal or person.
Description: Tested for oral activity against Escherichia coli #311 infection in mice after single oral dose(SOD)
The species named for assay [14] is Mus musculus. Kind of assay: animal or person. The source holds these as a separate data set.
Description: Tested for oral activity against Escherichia coli #311 infection in mice after single subcutaneous dose(SSC)
Setting [15] is: Morganella morganii, read-out: MIC.
[16] abbreviates: Enterococcus faecium, read-out: MIC.
Setting [17] is: Staphylococcus aureus, read-out: MIC.
Setting [18] is: Pseudomonas aeruginosa, ATCC 27853, read-out: MIC.
Setting [19] is: Citrobacter freundii, read-out: MIC.
The mark [20] stands for this setting: Pseudomonas aeruginosa, read-out: MIC.
Where [21] appears, read: Acinetobacter calcoaceticus, read-out: MIC.
Setting [22] is: Mus musculus, po, read-out: ED50.
Where [23] appears, read: Enterococcus faecalis, read-out: MIC.
Setting [24] is: Escherichia coli, read-out: MIC.

≈ marks a conversion by molar mass, not a printed value.

For `C[C@@H](N)C(=O)NC[C@@H]1COC[C@@H]1SC1=C(C(=O)O)N2C(=O)[C@H]([C@@H](C)O)C2[C@H]1C` (stereo not given in full), the Ratio in assay [1] stood at 41. Further, the MIC in the assay with Morganella morganii (setting [15]) was 2 µg/mL (≈ 4.84 µM); in the assay with Enterococcus faecium (setting [16]), over 128 µg/mL; in the assay on Staphylococcus aureus [2], 0.5 µg/mL (≈ 1.21 µM); in the assay on Staphylococcus aureus [3] (setting [17]), 8 µg/mL (≈ 19.3 µM); in the assay on Pseudomonas aeruginosa [4] (setting [18]), 64 µg/mL (≈ 155 µM); against Escherichia coli [5], 0.25 µg/mL (≈ 0.605 µM). The minimal inhibitory concentration (MIC) with Enterobacter cloacae is 1 µg/mL (≈ 2.42 µM); in the assay with Citrobacter freundii (setting [19]), 4 µg/mL (≈ 9.67 µM); against Escherichia coli [6], 0.25 µg/mL (≈ 0.605 µM); in assay [7] it was over 128 µg/mL; with Pseudomonas aeruginosa [8] (setting [20]) it was 128 µg/mL (≈ 310 µM); in assay [9] (setting [21]), 16 µg/mL (≈ 38.7 µM). Moreover, the MIC was 16 µg/mL (≈ 38.7 µM) in the assay on Enterococcus faecalis (setting [23]) and 0.25 µg/mL (≈ 0.605 µM) in the assay on Escherichia coli [11] (setting [24]). The ED50 worked out at 4.5 mg/kg in the assay on Mus musculus [10] (setting [22]) and 0.11 mg/kg in the assay with Mus musculus [12] (Mus musculus, read-out: ED50).
With `C[C@H]1C(S[C@@H]2CCO[C@@H]2CNC(=O)[C@H](N)Cc2ccccc2)=C(C(=O)O)N2C(=O)[C@H]([C@@H](C)O)C12` (stereo not given in full), the ED50 in the assay listed under Mus musculus [13] (setting [22]) came out at 1.2 mg/kg; in the assay filed under Mus musculus [14] (Mus musculus, read-out: ED50), 0.48 mg/kg; in the assay on Mus musculus [10] (setting [22]), 0.28 mg/kg; in the assay on Mus musculus [12] (Mus musculus, read-out: ED50) it was 0.06 mg/kg. The Ratio in [1] is given as 4.7. The MIC in the assay with Morganella morganii (setting [15]) came to 4 µg/mL (≈ 8.17 µM); in the assay on Enterococcus faecium (setting [16]) it was 128 µg/mL (≈ 261 µM); with Staphylococcus aureus [2], 0.25 µg/mL (≈ 0.511 µM); in the assay on Staphylococcus aureus [3] (setting [17]), 4 µg/mL (≈ 8.17 µM); with Pseudomonas aeruginosa [4] (setting [18]), 64 µg/mL (≈ 131 µM); with Escherichia coli [5], 0.25 µg/mL (≈ 0.511 µM). Further, the MIC in the assay on Enterobacter cloacae is 4 µg/mL (≈ 8.17 µM); in the assay on Citrobacter freundii (setting [19]) it was 8 µg/mL (≈ 16.3 µM); against Escherichia coli [6] it was 0.03 µg/mL (≈ 0.0613 µM); in [7], over 128 µg/mL; in the assay with Pseudomonas aeruginosa [8] (setting [20]), 128 µg/mL (≈ 261 µM); in assay [9] (setting [21]), 64 µg/mL (≈ 131 µM). The MIC in the assay with Enterococcus faecalis (setting [23]) came to 1 µg/mL (≈ 2.04 µM); in the assay with Escherichia coli [11] (setting [24]), 0.5 µg/mL (≈ 1.02 µM).
Consider `CC(C)[C@@H](N)C(=O)NC[C@H]1OCC[C@H]1SC1=C(C(=O)O)N2C(=O)[C@H]([C@@H](C)O)C2[C@H]1C` (stereo not given in full), for which the ED50 was determined as 0.31 mg/kg in the assay filed under Mus musculus [13] (setting [22]); 0.29 mg/kg in the assay filed under Mus musculus [14] (Mus musculus, read-out: ED50); 0.1 mg/kg in the assay on Mus musculus [10] (setting [22]); 0.07 mg/kg in the assay with Mus musculus [12] (Mus musculus, read-out: ED50). Moreover, in assay [1], the Ratio is recorded as 1.4. Besides, the MIC with Morganella morganii (setting [15]) is 1 µg/mL (≈ 2.26 µM); with Enterococcus faecium (setting [16]), over 128 µg/mL; in the assay on Staphylococcus aureus [2], 0.25 µg/mL (≈ 0.566 µM); with Staphylococcus aureus [3] (setting [17]), 8 µg/mL (≈ 18.1 µM); in the assay on Pseudomonas aeruginosa [4] (setting [18]) it was 32 µg/mL (≈ 72.5 µM); against Escherichia coli [5], at most 0.06 µg/mL. The MIC in the assay on Enterobacter cloacae is 0.5 µg/mL (≈ 1.13 µM); with Citrobacter freundii (setting [19]), 1 µg/mL (≈ 2.26 µM); with Escherichia coli [6] it was at most 0.06 µg/mL; in assay [7], over 128 µg/mL; in the assay on Pseudomonas aeruginosa [8] (setting [20]) it was 128 µg/mL (≈ 290 µM); in [9] (setting [21]) it was 16 µg/mL (≈ 36.2 µM). Besides, the MIC amounted to 2 µg/mL (≈ 4.53 µM) with Enterococcus faecalis (setting [23]) and 0.12 µg/mL (≈ 0.272 µM) in the assay with Escherichia coli [11] (setting [24]).
For the compound `C[C@@H](N)C(=O)NC[C@H]1COC[C@H]1SC1=C(C(=O)O)N2C(=O)[C@H]([C@@H](C)O)C2[C@H]1C` (stereo not given in full), the Ratio in [1] turned out to be 36. Also, the MIC in the assay with Morganella morganii (setting [15]) is 1 µg/mL (≈ 2.42 µM); in the assay with Enterococcus faecium (setting [16]), 128 µg/mL (≈ 310 µM); against Staphylococcus aureus [2], 0.5 µg/mL (≈ 1.21 µM); with Staphylococcus aureus [3] (setting [17]), 32 µg/mL (≈ 77.4 µM); in the assay with Pseudomonas aeruginosa [4] (setting [18]) it was 8 µg/mL (≈ 19.3 µM); against Escherichia coli [5] it was under 0.06 µg/mL. Further, the MIC against Enterobacter cloacae is 0.25 µg/mL (≈ 0.605 µM); with Citrobacter freundii (setting [19]), 2 µg/mL (≈ 4.84 µM); with Escherichia coli [6], under 0.06 µg/mL; in assay [7], over 128 µg/mL; in the assay on Pseudomonas aeruginosa [8] (setting [20]), 32 µg/mL (≈ 77.4 µM); in assay [9] (setting [21]), 8 µg/mL (≈ 19.3 µM). In addition, the values for the MIC in the assay on Enterococcus faecalis (setting [23]) and with Escherichia coli [11] (setting [24]) were 2 µg/mL (≈ 4.84 µM) and under 0.06 µg/mL, respectively. The ED50 in the assay on Mus musculus [10] (setting [22]) is 4 mg/kg; with Mus musculus [12] (Mus musculus, read-out: ED50), 0.11 mg/kg.
As for `C[C@H]1C(SC2COC(CN)C2)=C(C(=O)O)N2C(=O)[C@H]([C@@H](C)O)C12` (stereo in doubt; cis), the median effective dose (ED50) was 3.5 mg/kg in the assay filed under Mus musculus [13], 0.28 mg/kg in the assay filed under Mus musculus [14], 1.1 mg/kg in the assay with Mus musculus [10] and 0.05 mg/kg with Mus musculus [12]. Further, the Ratio in assay [1] turned out to be 22. Further, the MIC with Morganella morganii was 0.5 µg/mL (≈ 1.46 µM); in the assay with Enterococcus faecium, 128 µg/mL (≈ 374 µM); in the assay with Staphylococcus aureus [3], 4 µg/mL (≈ 11.7 µM); in the assay on Pseudomonas aeruginosa [4], 8 µg/mL (≈ 23.4 µM); against Citrobacter freundii, under 0.06 µg/mL; with Pseudomonas aeruginosa [8], 16 µg/mL (≈ 46.7 µM). Also, the MIC in assay [9] was 20 µg/mL (≈ 58.4 µM); with Enterococcus faecalis, 2 µg/mL (≈ 5.84 µM); against Escherichia coli [11] it was under 0.06 µg/mL.
With `C[C@@H](O)[C@H]1C(=O)N2C(C(=O)O)=C(SCCNC=N)C[C@H]12.O` [IMIPENEM], the MIC is 1 µg/mL in the assay with Morganella morganii (setting [15]); 64 µg/mL in the assay on Enterococcus faecium (setting [16]); under 0.06 µg/mL with Staphylococcus aureus [2]; 1 µg/mL with Staphylococcus aureus [3] (setting [17]); 1 µg/mL in the assay with Pseudomonas aeruginosa [4] (setting [18]); 0.12 µg/mL against Escherichia coli [5]. The MIC with Enterobacter cloacae is under 0.06 µg/mL; in the assay on Citrobacter freundii (setting [19]) it was 0.25 µg/mL; against Escherichia coli [6], 0.12 µg/mL; in assay [7], over 128 µg/mL; in the assay on Pseudomonas aeruginosa [8] (setting [20]), 16 µg/mL; in assay [9] (setting [21]), 0.25 µg/mL. Moreover, the MIC with Enterococcus faecalis (setting [23]) is 1 µg/mL; in the assay with Escherichia coli [11] (setting [24]), under 0.06 µg/mL.

The MIC is the smallest concentration in the dilution series that meets the test's criterion for growth inhibition. As usually defined, the ED50 is the dose that gives a 50% effect, or the effect in half of the subjects.

(Values after ChEMBL document CHEMBL1130465, “Peptidic prodrugs of novel aminomethyl-THF 1-methylcarbapenems” (1997).)
